Columns and labels:
[1] = test system: d[TGGGGT] (SEQ ID NO: 13); assay: CD titration with d[TGGGGT]; assay type: binding; conditions: 50 mM KCl, 10 mM K2HPO4, 0.1 mM EDTA, pH 7.0
From the text: (§1) The oligonucleotides d[AG3(T2AG3)3] (SEQ ID NO: 1), d[AG3TG4AG3TG4A] (SEQ ID NO: 2), d[G4(T4G4)3] (SEQ ID NO: 3), d[(T2G4)4] (SEQ ID NO: 4), d[(GC)7] (SEQ ID NO: 5), d[[…]] (SEQ ID NO: 6), d[G2T2G2TGTG2T2G2] (SEQ ID NO: 7), d[[…]] (SEQ ID NO: 8), d[[…]] (SEQ ID NO: 9), d[[…]] (SEQ ID NO: 10), d[[…]] (SEQ ID NO: 11), d[TTAGGGT] (SEQ ID NO: 12), and d[TGGGGT] (SEQ ID NO: 13) were purchased with HPLC purification from Midland Certified Reagent Company (The Midland Certified Reagent Company, Inc., Midland, Tex., USA). The concentration of each DNA sample was determined spectrophotometrically at 260 nm using the nearest neighbor extinction coefficient.
(§2) Stock solutions of individual dicationic polyaryl compounds were prepared in double distilled water and diluted to working concentrations immediately before use with buffer. […] Absorbance spectra were obtained on a Varian Cary 300 BIO UV-visible spectrophotometer (Varian, Inc., Palo Alto, Calif., United States of America) in a quartz cell with a 1 cm pathlength. CD spectra were recorded using a Jasco J-810 spectrapolarimeter (Jasco, Inc., Easton, Md., United States of America) in a 1-cm cell using an instrument scanning speed of 50 nm/min with a response time of 1 s. The spectra were averaged over four scans. A buffer baseline scan was collected in the same cuvette and subtracted from the average scan for each sample. […]

[2] = test system: STIB 900 strain of Trypanosoma brucei rhodesiense (T. b. r.); assay: In vivo T. b. r. STIB 900 mouse model; conditions: 20 mg/kg ip
Experimental: Groups of four mice were infected intraperitoneally with 2×10^5 bloodstream forms of T. b. r. STIB 900 which originates from a patient in Tanzania. On days 3, 4, 5, and 6 post-infection the experimental groups were treated with the drugs either by the intraperitoneal or for prodrugs by the oral route. Usually the highest tolerated dose was used which was determined in a pretoxicological experiment. Parasitemia of the mice was checked daily up to day 14 post-infection and thereafter 2 times per week up to day 60. One group of mice was not treated and acted as control. For relapsing mice, the day of death was recorded and the survival time determined.

[3] = test system: modified human telomere sequences; assay: CD titration with modified human telomere sequences; assay type: binding; conditions: 50 mM KCl, 10 mM K2HPO4, 0.1 mM EDTA, pH 7.0
From the text: as §1, §2

[4] = test system: telomeric G-quadruplex DNA sequence d[AG3(T2AG3)3] (SEQ ID NO: 1); assay: CD titration of compounds into human telomeric G-quadruplex DNA (induced CD); assay type: binding
From the text: as §1
Stock solutions of individual dicationic polyaryl compounds were prepared in double distilled water and diluted to working concentrations immediately before use with buffer. All measurements were performed at 20° C. in a 10 mM HEPES buffer (pH 7.4) containing 3 mM EDTA and 50 mM KCl, NaCl, or LiCl. Absorbance spectra were obtained on a Varian Cary 300 BIO UV-visible spectrophotometer (Varian, Inc., Palo Alto, Calif., United States of America) in a quartz cell with a 1 cm pathlength. CD spectra were recorded using a Jasco J-810 spectrapolarimeter (Jasco, Inc., Easton, Md., United States of America) in a 1-cm cell using an instrument scanning speed of 50 nm/min with a response time of 1 s. The spectra were averaged over four scans. A buffer baseline scan was collected in the same cuvette and subtracted from the average scan for each sample. Appropriate amounts of dicationic compound stock solution or DNA were added sequentially to increase the molar ratio.
When an achiral ligand binds tightly to a chiral host, such as DNA, a CD signal is induced in the wavelength region corresponding to the absorbance of the ligand. […] An additional negative band centered at 395 nm overlaps with the higher energy exciton band. […] Restriction of the rotational and translational freedom of the two molecules of the dimer relative to each other will cause an increase in the rotational strength of the induced CD band, resulting in a large ellipticity. See Allenmark, S., Chirality, 15, 409-422 (2003).
Some compounds appeared to bind to the telomeric G-quadruplex DNA sequence d[AG3(T2AG3)3] […] Relative strength of the induced CD is indicated by the number of (+) marks.

`N=C(N)c1ccc(-c2ccc(-c3ccc(C(=N)N)o3)o2)cc1` [Compound 8, 5′-(4-Amidinophenyl)-2,2′-bifuran-5-carboxamidine] was tested, and the “induced CD / exciton splitting (in words)” value [1] was “does not show any induced CD or exciton splitting”, the “In Vivo T.b.r. cures” value ([2]; mice cured / mice infected, days 3-6 post-infection) was 2/4 and the “In Vivo T.b.r. survival time” value ([2]; observation up to day 60) was > 45.5 days. The “exciton splitting in CD spectra (in words)” value [3] was “exhibited exciton splitting”, the “exciton splitting in CD spectra (in words)” value [4] was “induced exciton splitting” and the “Induced CD (exciton)” value ([4]; G-Quadruplex Affinity) was “+++++”.
